Measured values reported in patent publication US20250242006A1, “DRY POWDER COMPOSITIONS COMPRISING EUKARYOTIC CELLS AND METHOD OF THEIR MANUFACTURE AND USE” (BOARD OF REGENTS, THE UNIVERSITY OF TEXAS SYSTEM, priority 2021, published 2025).

Test system: J774A.1 cells
Assay: Viability of J774A.1 cells after thin-film freeze-drying (TFFD), trypan blue stain
Type: cell-based, murine
Description: Excipients that were used for their ability to preserve the cells includes disaccharide such as Trehalose, antioxidants such as EGCG, D-α-tocopherol succinate, D-α-tocopherol PEG1000 succinate, Trolox, glutathione, and L-ascorbic acid, polymers such as PVP-40, P-188, dextrin, dextran, and HSA. An equivalent volume of the above-mentioned excipients in complete DMEM or Dulbecco phosphate buffered saline (DPBS) was mixed with cells at final cell concentration of 2.5×10^6 cells/ml for J774A.1 macrophages or 1.0×10^6 cells/mL for THP-1 cells. Cells mixed with trehalose and antioxidant were incubated at 37° C. in 5% CO2 incubator. Polymers and proteins were added to the cells without incubation. The TFF technique was applied to the cell suspension by dropping them as droplets of 3.6-3.8 mm in diameter, 200 μl in 7-8 drops, from a distance of 1-10 cm onto the surface of a cryogenically cooled glass (˜−80° C. achieved using dry ice), which were then stored in −80° C. for 1 h until the lyophilization process. The lyophilizer shelf temperature was set at −35° C., with vacuum pressure at 100 mTorr for 12 h. To measure the viability of the cells after TFFD, the powders were resuspended in DMEM media or DPBS, and cell viability was assessed after trypan blue stain (0.4%, Gibco, Grand Island, NY) using a TC20 Bio-Rad automatic cell counter (Hercules, CA).

Cc1c(C)c2c(c(C)c1O)CCC(C)(C(=O)O)O2 (centres unmarked) [Trolox]
effect on J774A.1 cell viability after TFFD (antioxidant at 500 µM): helped improve the viability

Cc1c(C)c2c(c(C)c1OC(=O)CCC(=O)O)CC[C@@](C)(CCC[C@H](C)CCC[C@H](C)CCCC(C)C)O2 [D-α-tocopherol succinate]
effect on J774A.1 cell viability after TFFD (antioxidant at 800 μg/ml): helped improve the viability
